pIC50: −log10 of the molar value.

One experiment concerns the target EGFR WT (Homo sapiens, UniProt P00533). Kind of experiment: Kinase inhibition assay (mobility shift). In kind it is biochemical. The procedure:
(§1) Experiment 1 Kinase Inhibition Assay Mobility shift assays were performed to determine inhibitory activity of compounds against EGFR^Δ19del/T790M/C797S, EGFR WT and IGF1R kinases. The enzymatic reaction scheme is as follows:
(§2) 1. Preparing 1*Kinase Buffer as follows:
(§3) 2. Preparing compound concentration gradient: the initial concentration of the compound tested in the assay was 3,000 nM or 100 nM, which is then diluted to be 100-fold final concentration in 100% DMSO in a 384-source plate. Compounds in 10 concentrations were diluted in a 3-fold gradient with Precision. 250 nL of compound in 100-fold final concentration was transferred to OptiPlate-384F plate by using a dispenser named Echo 550.
(§4) 3. Preparing kinase solution at 2.5-fold the final concentration with 1×kinase buffer.
(§5) 4. Adding 10 μL of kinase solution at 2.5-fold the final concentration to compound wells and positive control wells respectively; and adding 10 μL of 1×kinase buffer to negative control wells.
(§6) 5. Centrifuging the wells at 1,000 rpm for 30 seconds, mixing the reaction plate well by shaking and incubating it at room temperature for 10 minutes.
(§7) 6. Preparing a mixed solution of ATP and kinase substrate at 5-fold/3-fold the final concentration with 1×Kinase buffer, respectively.
(§8) 7. Initiating the reaction by adding 15 μL of the mixed solution of ATP and kinase substrate at 5-fold/3-fold the final concentration.
(§9) 8. Centrifuging the 384-well plate at 1,000 rpm for 30 seconds, mixing the reaction plate well by shaking and incubating it at room temperature for a corresponding time.
(§10) 9. Adding 30 μL of assay stop solution to stop the kinase reaction, and centrifuging the plate at 1,000 rpm for 30 seconds and mixing it well by shaking.
(§11) 10. Reading the conversion rate with Caliper EZ Reader.
(§12) [formula] • wherein, “Conversion % sample” is the conversion rate reading of the sample;
(§13) “Conversion %_min” is the mean value of the negative control wells, representing the conversion rate readings of the well without enzymatic activity; “Conversion %_max” is the mean value of the positive control wells, representing the conversion rate readings of the wells without compound inhibition. • Dose-response curve is plotted with the logarithmic concentration on the X-axis and percent inhibition on the Y-axis. The fitting of the dose-response curve is made with the module “log(inhibitor) vs. response—Variable slope” of the analysis software GraphPad Prism 5, so that the IC50 value of each compound on enzymatic activity is obtained. • The calculation formula is: Y=Bottom+(Top−Bottom)/(1+10^((Log IC50−X)*HillSlope)).

The target in a further experiment is EGFR Δ19del/T790M/C797S (Homo sapiens, UniProt P00533, T790M/C797S, form not given). The experiment is described as follows: Kinase inhibition assay (mobility shift). The experiment is classed as biochemical. The procedure: as §1, §2, §3, §4, §5, §6, §7, §8, §9, §10, §11, §12, §13
Sequence of EGFR Δ19del/T790M/C797S (P00533 with tags, fused parts or gaps DEL746-750/T790M/C797S, form open): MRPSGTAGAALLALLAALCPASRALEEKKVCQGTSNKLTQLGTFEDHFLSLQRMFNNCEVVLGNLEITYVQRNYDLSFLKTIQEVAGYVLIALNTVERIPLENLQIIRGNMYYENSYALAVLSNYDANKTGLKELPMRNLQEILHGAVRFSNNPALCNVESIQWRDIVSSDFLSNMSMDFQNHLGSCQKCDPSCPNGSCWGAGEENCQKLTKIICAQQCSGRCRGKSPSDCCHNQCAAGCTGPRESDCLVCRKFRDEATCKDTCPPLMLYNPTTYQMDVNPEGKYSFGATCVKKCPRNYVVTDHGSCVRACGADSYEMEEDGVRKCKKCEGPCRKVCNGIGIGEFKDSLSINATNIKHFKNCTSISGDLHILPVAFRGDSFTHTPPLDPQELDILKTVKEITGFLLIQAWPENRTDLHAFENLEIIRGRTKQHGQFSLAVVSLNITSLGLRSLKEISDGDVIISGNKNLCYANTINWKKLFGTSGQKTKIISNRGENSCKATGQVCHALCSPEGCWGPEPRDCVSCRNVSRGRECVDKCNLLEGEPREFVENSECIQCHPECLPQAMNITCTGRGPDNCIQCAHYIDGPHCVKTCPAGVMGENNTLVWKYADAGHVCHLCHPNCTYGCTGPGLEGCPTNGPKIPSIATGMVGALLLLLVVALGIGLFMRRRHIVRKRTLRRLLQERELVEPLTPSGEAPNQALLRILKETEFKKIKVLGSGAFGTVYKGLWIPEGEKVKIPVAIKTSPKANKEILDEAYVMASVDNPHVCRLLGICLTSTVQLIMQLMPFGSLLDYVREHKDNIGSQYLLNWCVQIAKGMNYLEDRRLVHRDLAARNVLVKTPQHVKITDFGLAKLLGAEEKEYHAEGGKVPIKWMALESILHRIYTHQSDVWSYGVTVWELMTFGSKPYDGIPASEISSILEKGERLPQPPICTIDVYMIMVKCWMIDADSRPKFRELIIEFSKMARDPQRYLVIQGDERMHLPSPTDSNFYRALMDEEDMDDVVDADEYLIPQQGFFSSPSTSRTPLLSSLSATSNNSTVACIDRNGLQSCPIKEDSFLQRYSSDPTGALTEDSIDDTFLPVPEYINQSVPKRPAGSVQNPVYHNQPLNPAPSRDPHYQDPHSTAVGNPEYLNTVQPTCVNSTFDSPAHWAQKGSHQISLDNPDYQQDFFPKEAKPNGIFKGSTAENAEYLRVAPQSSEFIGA
The target of the next experiment is IGF1R (Homo sapiens, UniProt P08069). Kind of experiment: Kinase inhibition assay (mobility shift). In kind it is biochemical. Here is the method: as §1, §2, §3, §4, §5, §6, §7, §8, §9, §10, §11, §12, §13
Sequence of IGF1R (P08069 31-1367, species assumed): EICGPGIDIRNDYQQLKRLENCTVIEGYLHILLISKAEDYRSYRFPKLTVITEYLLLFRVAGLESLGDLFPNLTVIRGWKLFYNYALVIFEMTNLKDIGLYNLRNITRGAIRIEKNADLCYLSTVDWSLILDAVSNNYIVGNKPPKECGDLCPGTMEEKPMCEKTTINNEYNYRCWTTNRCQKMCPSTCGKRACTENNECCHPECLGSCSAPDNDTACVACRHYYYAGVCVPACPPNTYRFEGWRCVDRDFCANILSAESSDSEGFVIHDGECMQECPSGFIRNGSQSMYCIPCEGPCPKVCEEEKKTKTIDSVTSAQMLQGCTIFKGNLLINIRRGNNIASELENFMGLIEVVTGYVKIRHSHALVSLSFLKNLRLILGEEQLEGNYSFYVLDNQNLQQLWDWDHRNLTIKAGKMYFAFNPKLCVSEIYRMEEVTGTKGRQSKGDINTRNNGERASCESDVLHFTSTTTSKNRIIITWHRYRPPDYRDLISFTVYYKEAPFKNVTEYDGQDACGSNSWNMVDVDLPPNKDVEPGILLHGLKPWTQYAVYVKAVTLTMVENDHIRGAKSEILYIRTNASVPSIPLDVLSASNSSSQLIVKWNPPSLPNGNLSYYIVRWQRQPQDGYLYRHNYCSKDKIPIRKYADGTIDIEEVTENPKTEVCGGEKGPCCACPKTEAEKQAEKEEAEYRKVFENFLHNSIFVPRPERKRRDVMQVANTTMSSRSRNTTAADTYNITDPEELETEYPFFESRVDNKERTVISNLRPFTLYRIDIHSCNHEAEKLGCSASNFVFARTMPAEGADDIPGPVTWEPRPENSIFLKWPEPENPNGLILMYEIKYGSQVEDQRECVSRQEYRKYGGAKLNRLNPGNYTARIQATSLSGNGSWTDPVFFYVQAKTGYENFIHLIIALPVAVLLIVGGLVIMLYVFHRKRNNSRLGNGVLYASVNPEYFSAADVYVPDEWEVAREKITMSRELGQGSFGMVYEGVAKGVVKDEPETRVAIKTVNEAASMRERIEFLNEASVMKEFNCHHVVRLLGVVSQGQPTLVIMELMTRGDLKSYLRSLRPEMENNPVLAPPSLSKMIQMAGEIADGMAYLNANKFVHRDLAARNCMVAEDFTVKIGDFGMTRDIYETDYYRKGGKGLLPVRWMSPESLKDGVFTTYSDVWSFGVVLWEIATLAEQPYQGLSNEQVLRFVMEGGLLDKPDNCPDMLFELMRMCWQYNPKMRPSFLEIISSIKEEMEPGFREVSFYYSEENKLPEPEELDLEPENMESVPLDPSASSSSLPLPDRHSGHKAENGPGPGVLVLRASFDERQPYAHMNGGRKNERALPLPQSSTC
A further experiment has as its target Ba/F3 EGFR WT (Homo sapiens, UniProt P00533). Kind of experiment: Cell proliferation experiment (CellTiter Glo, 72 hours). To be noted: read-out: BaF3 EGFR WT IC50. In kind it is cell-based. In a few lines:
(§14)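 Ba/F3 cells overexpressing EGFR Δ19del/T790M/C797S or EGFR WT were seeded at 2000 or 3000 cells/well and exposed 72 h to 9 compound concentrations (3-fold, top 10000 or 1111 nM final, 0.1% DMSO). CellTiter-Glo luminescence gave survival inhibition versus controls; IC50 from nonlinear fit.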
In general terms: ATP-based viability assays read luminescence as a measure of living cells.

In another experiment the target is Ba/F3-Δ19del/T790M/C797S (Homo sapiens, UniProt P00533, T790M/C797S, cells depend on it, form not given). The description is as above. In kind it is cell-based. The conditions noted are these: read-out: Ba/F3/EGFR Δ19del/T790M/C797S IC50. A digest of the protocol: as §14
In experiment [1] the test system is human epidermal cancer cells A431 carrying EGFR WT. Described as above. The experiment is classed as cell-based. The conditions noted are these: Homo sapiens, A-431. A digest of the protocol:
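Cells seeded at 2000 or 3000/well and exposed 72 h to 9-point 3-fold dilutions, top final 10000 nM or 1111 nM, 0.1% DMSO. Viability by CellTiter-Glo luminescence. Inhibition relative to cell and medium controls; IC50 by four-parameter nonlinear regression.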

Sequence of Ba/F3 EGFR WT (P00533 whole entry, stated change not applied): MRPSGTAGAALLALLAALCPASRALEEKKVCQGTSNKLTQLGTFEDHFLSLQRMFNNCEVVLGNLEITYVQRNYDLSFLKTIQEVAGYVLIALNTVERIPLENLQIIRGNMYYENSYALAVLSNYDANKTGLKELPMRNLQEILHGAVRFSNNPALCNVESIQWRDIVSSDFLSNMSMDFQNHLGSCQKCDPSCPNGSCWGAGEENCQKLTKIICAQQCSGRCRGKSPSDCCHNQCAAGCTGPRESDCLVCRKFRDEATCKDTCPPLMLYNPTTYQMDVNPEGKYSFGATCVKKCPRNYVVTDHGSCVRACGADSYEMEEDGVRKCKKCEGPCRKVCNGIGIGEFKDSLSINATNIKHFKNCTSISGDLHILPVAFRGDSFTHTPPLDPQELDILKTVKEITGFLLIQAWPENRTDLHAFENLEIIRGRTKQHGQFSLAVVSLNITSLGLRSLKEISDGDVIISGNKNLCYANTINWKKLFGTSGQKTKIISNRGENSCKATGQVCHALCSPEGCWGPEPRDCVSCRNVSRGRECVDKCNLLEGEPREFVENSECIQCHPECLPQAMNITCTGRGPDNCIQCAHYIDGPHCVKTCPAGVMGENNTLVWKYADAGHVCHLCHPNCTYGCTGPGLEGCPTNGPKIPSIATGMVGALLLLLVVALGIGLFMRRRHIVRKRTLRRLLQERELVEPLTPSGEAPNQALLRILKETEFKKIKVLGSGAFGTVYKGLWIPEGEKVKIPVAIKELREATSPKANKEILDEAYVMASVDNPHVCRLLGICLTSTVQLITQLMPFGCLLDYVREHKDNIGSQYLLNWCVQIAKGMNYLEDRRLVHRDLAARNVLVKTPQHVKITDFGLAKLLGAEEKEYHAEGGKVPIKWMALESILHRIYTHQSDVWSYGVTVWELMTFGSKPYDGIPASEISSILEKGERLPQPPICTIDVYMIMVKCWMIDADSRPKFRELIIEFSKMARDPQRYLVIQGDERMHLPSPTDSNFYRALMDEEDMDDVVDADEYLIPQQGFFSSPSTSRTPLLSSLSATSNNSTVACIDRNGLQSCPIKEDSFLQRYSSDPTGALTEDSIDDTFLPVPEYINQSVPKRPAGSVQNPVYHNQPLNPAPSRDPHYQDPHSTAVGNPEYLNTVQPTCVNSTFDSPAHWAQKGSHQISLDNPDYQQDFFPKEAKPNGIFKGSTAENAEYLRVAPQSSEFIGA
Sequence of EGFR WT (P00533 25-1210): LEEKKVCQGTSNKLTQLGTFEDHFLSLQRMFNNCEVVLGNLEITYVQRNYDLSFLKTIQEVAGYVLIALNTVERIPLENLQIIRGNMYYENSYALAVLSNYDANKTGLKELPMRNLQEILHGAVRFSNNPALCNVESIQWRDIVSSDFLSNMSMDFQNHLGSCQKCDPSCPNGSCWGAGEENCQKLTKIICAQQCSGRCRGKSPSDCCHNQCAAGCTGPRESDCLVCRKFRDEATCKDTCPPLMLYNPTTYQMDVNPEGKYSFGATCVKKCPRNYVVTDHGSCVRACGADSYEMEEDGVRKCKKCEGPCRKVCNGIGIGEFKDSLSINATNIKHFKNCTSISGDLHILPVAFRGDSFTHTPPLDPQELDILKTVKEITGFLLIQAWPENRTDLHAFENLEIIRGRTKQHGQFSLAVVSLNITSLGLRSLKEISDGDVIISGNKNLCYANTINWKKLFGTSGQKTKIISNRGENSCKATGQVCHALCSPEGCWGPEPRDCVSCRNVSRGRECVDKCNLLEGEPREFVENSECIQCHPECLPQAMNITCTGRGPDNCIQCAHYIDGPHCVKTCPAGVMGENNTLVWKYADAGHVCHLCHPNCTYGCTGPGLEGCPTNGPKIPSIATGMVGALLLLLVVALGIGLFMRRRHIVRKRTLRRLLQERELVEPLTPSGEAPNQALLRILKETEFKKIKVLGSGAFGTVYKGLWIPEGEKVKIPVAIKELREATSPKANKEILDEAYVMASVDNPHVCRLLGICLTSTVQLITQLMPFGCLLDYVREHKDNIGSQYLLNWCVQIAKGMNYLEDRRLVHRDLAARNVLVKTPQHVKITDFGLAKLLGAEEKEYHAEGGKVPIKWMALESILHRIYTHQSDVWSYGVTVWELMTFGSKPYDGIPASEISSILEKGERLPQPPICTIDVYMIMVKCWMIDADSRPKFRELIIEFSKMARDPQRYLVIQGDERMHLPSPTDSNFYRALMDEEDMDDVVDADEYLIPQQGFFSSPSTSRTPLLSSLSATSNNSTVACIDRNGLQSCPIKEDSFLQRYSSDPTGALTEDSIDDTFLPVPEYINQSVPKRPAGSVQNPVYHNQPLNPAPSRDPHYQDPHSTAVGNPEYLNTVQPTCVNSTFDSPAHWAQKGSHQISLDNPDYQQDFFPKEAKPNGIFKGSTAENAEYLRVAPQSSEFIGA

Regarding `C#Cc1ccc2c(P(C)(C)=O)c(Nc3nc(Nc4cc(C)c(N5CCC(N6CCN(C)CC6)CC5)cc4OC)ncc3Br)ccc2n1` [Compound J-013, (6-((5-Bromo-2-((2-methoxy-5-methyl-4-(4-(4-methylpiperazin-1 yl)piperidin-1-yl)phenyl)amino)pyrimidin-4-yl)amino)-2-ethynylquinolin-5-yl)dimethylphosphine oxide], the pIC50 (in general, the negative decadic logarithm of the IC50, by convention in mol/L) on EGFR WT was 7.94; at EGFR Δ19del/T790M/C797S, 9.40; on IGF1R, 7.55; in experiment [1] it was 6.51. Moreover, the figures for the GI50 on Ba/F3 EGFR WT and on Ba/F3-Δ19del/T790M/C797S were 0.087 µM and 0.0153 µM, respectively.
As to `CCc1cc(Nc2ncc(Br)c(Nc3ccc4nc(C5CC5)ccc4c3P(C)(C)=O)n2)c(OC)cc1N1CCC(N2CCN(C)CC2)CC1` [Compound J-018, (6-((5-Bromo-2-((5-ethyl-2-methoxy-4-(4-(4-methylpiperazin-1-yl)piperidin-1-yl)phenyl)amino)pyrimidin-4-yl)amino)-2-cyclopropylquinolin-5-yl)dimethylphosphine oxide], the pIC50 on EGFR WT is 8.14; at EGFR Δ19del/T790M/C797S, 9.52; on IGF1R, 6.75; in experiment [1] it was 5.82. Besides, the GI50 on Ba/F3 EGFR WT came to 0.16 µM; at Ba/F3-Δ19del/T790M/C797S it was 0.0019 µM.
With `COc1cc(N2CCC(N3CCN(C)CC3)CC2)c(C)cc1Nc1ncc(Br)c(Nc2ccc3nc(C(C)C)ccc3c2P(C)(C)=O)n1` [Compound J-034, (6-((5-Bromo-2-((2-methoxy-5-methyl-4-(4-(4-methylpiperazin-1-yl)piperidin-1-yl)phenyl)amino)pyrimidin-4-yl)amino)-2-isopropylquinolin-5-yl)dimethylphosphine oxide], the pIC50 was 7.64 on EGFR WT, 9.92 at EGFR Δ19del/T790M/C797S, 6.53 on IGF1R and 6.36 in experiment [1]. The GI50 turned out to be 0.189 µM on Ba/F3 EGFR WT and 0.0058 µM at Ba/F3-Δ19del/T790M/C797S.
For `COc1cc(Nc2ncc(Br)c(Nc3ccc4nc(-c5cnn(C)c5)ccc4c3P(C)(C)=O)n2)c(C)cc1N1CCOCC1` [Compound J-007, (6-((5-Bromo-2-((5-methoxy-2-methyl-4-morpholinylphenyl)amino)pyrimidin-4-yl)amino)-2-(1-methyl-1H-pyrazol-4-yl)quinolin-5-yl)dimethylphosphine oxide], the pIC50 at EGFR WT is 7.52; on EGFR Δ19del/T790M/C797S, 9.70; on IGF1R it was 7.39; in experiment [1] it was 5.99. Besides, the GI50 on Ba/F3 EGFR WT amounted to 0.147 µM; on Ba/F3-Δ19del/T790M/C797S, 0.006 µM.
In the case of `CCCc1ccc2c(P(C)(C)=O)c(Nc3nc(Nc4cc(C)c(N5CCC(N6CCN(C)CC6)CC5)cc4OC)ncc3Br)ccc2n1` [Compound J-042, (6-((5-Bromo-2-((2-methoxy-5-methyl-4-(4-(4-methylpiperazin-1-yl)piperidin-1-yl)phenyl)amino)pyrimidin-4-yl)amino)-2-propylquinolin-5-yl)dimethylphosphine oxide], the pIC50 at EGFR WT is 7.68; at EGFR Δ19del/T790M/C797S it was 9.52; at IGF1R it was 6.97; in experiment [1], 6.43. The GI50 at Ba/F3 EGFR WT was 0.296 µM; at Ba/F3-Δ19del/T790M/C797S it was 0.00818 µM.
As for `C#Cc1ccc2c(P(C)(C)=O)c(Nc3nc(Nc4cc(CC)c(N5CCC(N6CCN(C)CC6)CC5)cc4OC)ncc3Br)ccc2n1` [Compound J-014, (6-((5-Bromo-2-((5-ethyl-2-methoxy-4-(4-(4-methylpiperazin-1-yl)piperidin-1-yl)phenyl)amino)pyrimidin-4-yl)amino)-2-ethynylquinolin-5-yl)dimethylphosphine oxide], the pIC50 was 8.33 at EGFR WT, 9.72 at EGFR Δ19del/T790M/C797S, 7.24 on IGF1R and 6.29 in experiment [1]. The GI50 is 0.108 µM at Ba/F3 EGFR WT and 0.006 µM at Ba/F3-Δ19del/T790M/C797S.
Take `COc1cc(Nc2ncc(Br)c(Nc3ccc4nc(C5CC5)ccc4c3P(C)(C)=O)n2)c(C)cc1N1CCC(N2CCN(C)CC2)CC1` [Compound J-023, (6-((5-Bromo-2-((5-methoxy-2-methyl-4-(4-(4-methylpiperazin-1-yl)piperidin-J-yl)phenyl)amino)pyrimidin-4-yl)amino)-2-cyclopropylquinolin-5-yl)dimethylphosphine oxide]: the pIC50 at EGFR WT was 7.77; on EGFR Δ19del/T790M/C797S, 9.55; at IGF1R it was 7.57; in experiment [1] it was 6.06. For the same molecule, the GI50 is 0.117 µM on Ba/F3 EGFR WT and 0.0064 µM at Ba/F3-Δ19del/T790M/C797S.
Regarding `COc1cc(Nc2ncc(Br)c(Nc3ccc4nc(C5CC5)ccc4c3P(C)(C)=O)n2)c(C2CC2)cc1N1CCC(N2CCN(C)CC2)CC1` [Compound J-024, (6-((5-Bromo-2-((2-cyclopropyl-5-methoxy-4-(4-(4-methylpiperazin-1-yl)piperidin-1-yl)phenyl)amino)pyrimidin-4-yl)amino)-2-cyclopropylquinolin-5-yl)dimethylphosphine oxide], the negative logarithm of the IC50 (pIC50) at EGFR WT is 6.94; on EGFR Δ19del/T790M/C797S, 9.30; at IGF1R, 6.86; in experiment [1], 5.86. The GI50 on Ba/F3 EGFR WT was determined as 0.373 µM; on Ba/F3-Δ19del/T790M/C797S, 0.0267 µM.
Take `CCc1cc(N2CCOCC2)c(OC)cc1Nc1ncc(Br)c(Nc2ccc3nc(C4CC4)ccc3c2P(C)(C)=O)n1` [Compound J-003, (6-((5-Bromo-2-((2-ethyl-5-methoxy-4-morpholinylphenyl)amino)pyrimidin-4-yl)amino)-2-cyclopropylquinoline-5-yl)dimethylphosphine oxide]: the pIC50 on EGFR WT was 6.76; on EGFR Δ19del/T790M/C797S, 9.30; at IGF1R, 6.72; in experiment [1] it was 5.52. The GI50 on Ba/F3 EGFR WT came out at 0.646 µM; on Ba/F3-Δ19del/T790M/C797S it was 0.0257 µM.
For `CCc1cc(Nc2ncc(Br)c(Nc3ccc4nc(C5CC5)ccc4c3P(C)(C)=O)n2)c(C)cc1N1CCC(N2CCN(C)CC2)CC1` [Compound J-027, (6-((5-Bromo-2-((5-ethyl-2-methyl-4-(4-(4-methylpiperazin-1-yl)piperidin-1-yl)phenyl)amino)pyrimidin-4-yl)amino)-2-cyclopropylquinolin-5-yl)dimethylphosphine oxide], the pIC50 on EGFR WT was 7.95; at EGFR Δ19del/T790M/C797S it was 9.52; on IGF1R it was 7.21; in experiment [1], 5.05. Moreover, the GI50 was determined as 0.052 µM at Ba/F3 EGFR WT and 0.0014 µM on Ba/F3-Δ19del/T790M/C797S.
As for `COc1cc(Nc2ncc(Br)c(Nc3ccc4nc(C5CC5)ccc4c3P(C)(C)=O)n2)c(C)cc1N1CCC(N(C)C)CC1` [Compound J-009, (6-((5-Bromo-2-((4-(4-(dimethylamino)piperidin-1-yl)-5-methoxy-2-methylphenyl)amino)pyrimidine-4-yl)amino)-2-cyclopropylquinolin-5-yl)dimethylphosphine oxide], the pIC50 at EGFR WT is 7.84; at EGFR Δ19del/T790M/C797S, 9.52; on IGF1R, 7.83; in experiment [1], 6.42. Further, the GI50 was found to be 0.168 µM at Ba/F3 EGFR WT and 0.0163 µM at Ba/F3-Δ19del/T790M/C797S.
Take `COc1cc(Nc2ncc(Br)c(Nc3ccc4nc(C5CC5)ccc4c3P(C)(C)=O)n2)c(C)cc1N1CCOCC1` [Compound J-001, (6-((5-Bromo-2-((5-methoxy-2-methyl-4-morpholinylphenyl)amino)pyrimidin-4-yl)amino)-2-cyclopropylquinoline-5-yl)dimethylphosphine oxide]: the pIC50 at EGFR WT is 7.29; at EGFR Δ19del/T790M/C797S, 9.30; on IGF1R, 7.20; in experiment [1], 5.87. Also, the GI50 on Ba/F3 EGFR WT was determined as 0.396 µM; on Ba/F3-Δ19del/T790M/C797S, 0.0265 µM.

For the origin of these results see patent publication US20230131025A1, “QUINOLYL PHOSPHINE OXIDE COMPOUND, AND COMPOSITION AND APPLICATION THEREOF” (Betta Pharmaceuticals Co., Ltd., priority 2020, published 2023).
